The source of these data is US11300570B2, “Therapeutic and diagnostic methods for cancer” (Genentech, Inc., priority 2016, dated 2022).

Assay [1] deals with metastatic urothelial carcinoma (mUC). Briefly: IMvigor210 study of atezolizumab in metastatic urothelial carcinoma, efficacy by tTMB. The class given is in vivo, human. The procedure: To evaluate this idea, the association between tTMB and response to atezolizumab was evaluated in several distinct cancer types. As described in Example 2, high tTMB was associated with response to atezolizumab in 1 L and 2 L+ NSCLC, including at tTMB cutoffs of ≥16 mut/Mb and ≥20 mut/Mb. […] Tissue TMB was associated with improved ORR in 1 L and 2 L mUC patients at the ≥16 mut/Mb and ≥20 mut/Mb cutoffs in the IMvigor210 study (FIG. 17).

Assay [2] relates to locally advanced or metastatic NSCLC. Briefly: OAK Phase III randomized trial, atezolizumab vs docetaxel, in 2L+ NSCLC, efficacy by tTMB. The class given is in vivo, human. The following applies: for Median OS / Median PFS: 2L+ OAK. The text has this:
Patients were eligible for enrollment in the POPLAR study if they had locally advanced or metastatic (e.g., stage IIIB, stage IV, or recurrent) NSCLC; disease progression during or following treatment with a prior platinum-containing regimen for locally advanced, unresectable/inoperable, or metastatic NSCLC, or disease recurrence within 6 months of treatment with a platinum-based adjuvant/neoadjuvant regimen; measurable disease, as defined by RECIST v1.1; and an ECOG performance status of 0 or 1. Participants were randomized to receive either atezolizumab at a dose of 1200 mg intravenously every three weeks or docetaxel 75 mg per meter square (mg/m^2) intravenously every three weeks. Treatment with atezolizumab could be continued as long as participants were experiencing clinical benefit, i.e., in the absence of unacceptable toxicity or symptomatic deterioration attributed to disease progression. Pre-treatment tumor samples from patients in the Phase III OAK trial (Clinical Trial ID No.: NCT02008227) were also evaluated for tTMB. Patients were eligible for enrollment in the OAK study if they had locally advanced or metastatic (e.g., stage IIIB, stage IV, or recurrent) NSCLC; disease progression during or following treatment with a prior platinum-containing regimen for locally advanced, unresectable/inoperable, or metastatic NSCLC, or disease recurrence within 6 months of treatment with a platinum-based adjuvant/neoadjuvant regimen; measurable disease, as defined by RECIST v1.1; and an ECOG performance status of 0 or 1. Participants were randomized to receive either atezolizumab at a dose of 1200 mg intravenously every three weeks or docetaxel 75 mg per square meter (mg/m^2) intravenously every three weeks. Treatment with atezolizumab could be continued as long as participants were experiencing clinical benefit, i.e., in the absence of unacceptable toxicity or symptomatic deterioration attributed to disease progression.
To identify somatic mutations, tumor samples (e.g., archival tumor samples) were processed as described in Frampton et al. Nat. Biotechnol. 31:1023-31, 2013. Sequencing libraries were constructed to sequence and analyze samples. In addition to standard mutation processing, a mutation load estimation algorithm was applied that, based on the number of somatic mutations and/or rearrangements detected in Table 1 or Table 2, respectively, extrapolates to the exome or the genome as a whole. For purposes of mutation load estimation, all coding short variant alterations, base substitutions, and indels detected in the genes listed in Table 1 and Table 2 were counted. Further, all coding alterations (base substitutions and indels), including synonymous alterations, with the exception of known oncogenic driver mutations, in the genes listed in Table 1 and Table 2 were counted. However, numerous classes of detected alterations were not counted: non-coding alterations; alterations with known (occurring as known somatic alterations in the COSMIC database (Forbes et al. (2014) Nucl. Acids Res. 43:D805-11) and likely (truncations in tumor suppressor genes) functional status; known germline alterations in the dbSNP database (Sherry et al. (2001) Nucleic Acids Res. 29(1):308-11); germline alterations occurring with two or more counts in the ExAC database (Exome Aggregation Consortium (ExAC), Cambridge, Mass.); alterations that are predicted to be germline in the specimen being assessed; and alterations that are predicted to be germline in a cohort of >60,000 clinical specimens. Finally, to calculate the mutation load per megabase, the total number of mutations counted was divided by the coding region target territory of the test, which was 1.110 megabases (Mb) for the current version of the test. The average median coverage value for all samples was 490.
The BEP was defined as patients with at least one tTMB measurement from a baseline tumor sample. […]

The mark [3] stands for this setting: BEP (evaluable for TMB) (n = 174 atezolizumab, 186 docetaxel).
The mark [4] stands for this setting: tTMB score <9 mut/Mb (n = 91 atezolizumab, 87 docetaxel).
The mark [5] stands for this setting: tTMB score <16 mut/Mb (n = 135 atezolizumab, 136 docetaxel).
[6] abbreviates: tTMB score ≥9 mut/Mb (n = 83 atezolizumab, 99 docetaxel).
Setting [7] is: tTMB score ≥16 mut/Mb (n = 39 atezolizumab, 50 docetaxel).

With atezolizumab, the “association of increased tTMB with ORR, PFS and OS” value in assay [1] (1L cisplatin-ineligible mUC, cohort 1 of IMvigor210) was “associated with increased ORR (FIG. 15A), longer PFS (FIG. 15B), and longer OS (FIG. 15C)”; in assay [1] (2L+ mUC, cohort 2 of IMvigor210) it was “associated with increased ORR (FIG. 16A), longer PFS (FIG. 16B), and longer OS (FIG. 16C)”. Moreover, the ORR in assay [1] (IMvigor210 1L cisplatin-ineligible and 2L+ mUC, 6 patients both TMB-high (≥16 mut/Mb) and MSI-high) is 83%. The “Median OS” value in assay [2] (setting [3]) is listed as 13.3 months; in assay [2] (ITT (n = 425 per arm)) it was 13.8 months; in assay [2] (setting [4]), 14.2 months; in assay [2] (setting [5]), 12.7 months; in assay [2] (setting [6]) it was 13.3 months; in assay [2] (setting [7]) it was 18.7 months. Besides, the “Median PFS” value in assay [2] (setting [3]) was 2.0 months; in assay [2] (ITT (n = 425 per arm)), 2.0 months; in assay [2] (setting [4]), 1.8 months; in assay [2] (setting [5]), 1.7 months; in assay [2] (setting [6]), 2.5 months; in assay [2] (setting [7]), 5.5 months. For the same substance, the “association of tissue TMB with efficacy” value in assay [2] (OAK study) is on record as “associated with improved efficacy”.
